Measured values: US9388164B2, “Methods of using pyruvate kinase activators” (AGIOS PHARMACEUTICALS, INC, priority 2011, dated 2016)

Columns and labels:
Assay type in all cases: biochemical
PKR R532W [1] = biological target: T1, PKR R532W (Homo sapiens, UniProt P30613, R532W); test: PKR R532W Single Point Percent Activation Assay; conditions: compound at 1 μM; read-out: % Act. R532W
Method in brief: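 Single-point activation at 1 μM compound, pre-incubated 60 min at RT with PKR R532W (100 ng/well) in Tris pH 7.5, KCl, MgCl2, DTT, BSA. Reaction started with ADP (0.36 mM), PEP 0.1 mM; LDH-coupled NADH (180 μM) consumption followed at OD340, room temperature.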

PKR T384W [2] = biological target: T2, PKR T384W (Homo sapiens, UniProt P30613); test: PKR T384W Single Point Percent Activation Assay; conditions: compound at 1 μM
Method in brief: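 Soluble PKR T384W (300 ng/well) with compound at 1 μM, preincubated 60 min at RT in 50 mM Tris pH 7.5, 100 mM KCl, 5 mM MgCl2, 1 mM DTT, 0.03% BSA. Reaction started with ADP (0.08 mM); PEP 0.23 mM, LDH-coupled NADH (180 μM) consumption read at OD340, RT.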

wild type PKR = wild type PKR (Homo sapiens, UniProt P30613); test: PKR assay, AC50 (wild type); conditions: read-out: PKR WT AC50
Procedure: (§1) • PKR or PKR mutant enzyme solution was diluted in assay buffer. • 2 μL of test compound was added into wells first, and then 180 μL reaction mix was added. • Reactions mixture with test compound was assembled except for ADP, and plates were stored for 60 minutes at room temperature. • 20 uL ADP was added to start reaction at room temperature and reaction progress was measured as changes in absorbance at 340 nm wavelength at room temperature.
(§2) Test Compound Preparation: • Test compound stock was made at 100× concentration in 100% DMSO (10 mM) • 1 to 3 dilutions were made for 11 points (i.e. 50 μl of first concentration added to 100 μl 100% DMSO to yield 3.33 mM, 50 μl of this added to 100 μl DMSO to yield 1.11 mM, and so forth) • 1 to 100 dilution into assay (2 μl in 200 μl) yielded starting concentration of 100 μM, decreasing 3 fold for 11 points.

PKR R510Q [3] = biological target: T3, PKR R510Q (Homo sapiens, UniProt P30613, R510Q); test: PKR R510Q Single Point Percent Activation Assay; conditions: compound at 1 μM; read-out: % Act. R510Q
Method in brief: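 Compound at 1 μM was preincubated 60 min at RT with PKR R510Q (40 ng/well) in Tris pH 7.5, KCl, MgCl2, DTT, BSA, then started with ADP (0.2 mM) alongside PEP 0.11 mM, NADH 180 μM and LDH. LDH-coupled readout by OD340 at room temperature, given as percent activation.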

PKR wt = PKR wt (Homo sapiens, UniProt P30613); test: PKR WT Single Point Percent Activation Assay; conditions: compound at 1 μM
Method in brief: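 Compound at 1 μM preincubated 60 min with wild-type PKR (100 ng/well) in 50 mM Tris pH 7.5, 100 mM KCl, 5 mM MgCl2, 0.03% BSA; 0.48 mM ADP started the reaction with 0.15 mM PEP. LDH-coupled NADH (180 μM) oxidation read at OD340, all at room temperature.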

PKR T384W [4] = biological target: T2, PKR T384W; test: PKR Mutant Assay, AC50 (T384W)
Procedure: as §1, §2

PKR R510Q [5] = biological target: T3, PKR R510Q; test: PKR Mutant Assay, AC50 (R510Q)
Procedure: as §1, §2

PKR R532W [6] = biological target: T1, PKR R532W; test: PKR Mutant Assay, AC50 (R532W)
Procedure: as §1, §2

PKR G364D = PKR G364D (Homo sapiens, UniProt P30613, G364D); test: PKR Mutant Assay, AC50 (G364D)
Procedure: as §1, §2

PKR R479H = PKR R479H (Homo sapiens, UniProt P30613, R479H); test: PKR Mutant Assay, AC50 (R479H)
Procedure: as §1, §2

Chain of PKR wt (P30613 whole entry): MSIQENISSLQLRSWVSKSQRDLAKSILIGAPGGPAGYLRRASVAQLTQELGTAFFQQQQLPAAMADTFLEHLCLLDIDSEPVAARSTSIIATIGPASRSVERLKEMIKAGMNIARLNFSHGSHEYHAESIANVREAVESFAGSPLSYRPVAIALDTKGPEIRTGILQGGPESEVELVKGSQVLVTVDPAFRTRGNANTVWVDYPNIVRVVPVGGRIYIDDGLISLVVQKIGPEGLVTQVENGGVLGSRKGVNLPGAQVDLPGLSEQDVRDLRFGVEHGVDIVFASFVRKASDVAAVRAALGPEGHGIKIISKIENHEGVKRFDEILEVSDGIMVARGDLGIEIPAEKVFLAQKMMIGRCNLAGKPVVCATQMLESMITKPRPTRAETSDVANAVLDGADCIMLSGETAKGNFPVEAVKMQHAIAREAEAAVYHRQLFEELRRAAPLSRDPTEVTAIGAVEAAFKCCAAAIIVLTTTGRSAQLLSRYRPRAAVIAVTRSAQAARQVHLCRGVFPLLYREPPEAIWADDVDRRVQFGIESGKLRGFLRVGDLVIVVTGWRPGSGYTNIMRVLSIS
Chain of wild type PKR (P30613 whole entry): as above
T1 sequence (P30613 whole entry R532W): as the sequence (P30613 whole entry) above, with R532W counted along it
T3 sequence (P30613 whole entry R510Q): as the sequence (P30613 whole entry) above, with R510Q counted along it
T2 sequence (P30613 whole entry T384M): as the sequence (P30613 whole entry) above, with T384M counted along it
Chain of PKR R479H (P30613 whole entry R479H): as the sequence (P30613 whole entry) above, with R479H counted along it
Chain of PKR G364D (P30613 whole entry G364D): as the sequence (P30613 whole entry) above, with G364D counted along it

Row | Compound | AC50 (PKR T384W [4]) | AC50 (PKR R510Q [5]) | AC50 (PKR R532W [6]) | also measured
1 | O=C(c1ccc(NS(=O)(=O)c2cccc3cccnc23)c(F)c1)N1CC(Nc2ccccc2)C1 [drawing 22] | – | – | – | activation at 1 µM (PKR R532W [1]): 101 to 500%; % Act. T384W (PKR T384W [2]): B (a % activation at 1 μM of from 101 to 500); AC50 (wild type PKR): > 500 nM; activation at 1 µM (PKR R510Q [3]): 101 to 500%; activation at 1 µM (PKR wt): 101 to 500%
2 | O=C(c1ccc(NS(=O)(=O)c2cccc3cccnc23)cc1)N1CC(O)(c2ccccc2)C1 [drawing 40] | – | – | – | activation at 1 µM (PKR R532W [1]): 101 to 500%; % Act. T384W (PKR T384W [2]): B (a % activation at 1 μM of from 101 to 500); AC50 (wild type PKR): 101 to 500 nM; activation at 1 µM (PKR R510Q [3]): 101 to 500%; activation at 1 µM (PKR wt): 101 to 500%
3 | COc1ccccc1OC1CN(C(=O)c2ccc(NS(=O)(=O)c3cccc4cccnc34)c(C)c2)C1 [drawing 63] | – | – | – | activation at 1 µM (PKR R532W [1]): 101 to 500%; % Act. T384W (PKR T384W [2]): A (a % activation at 1 μM of from 1 to 100); AC50 (wild type PKR): < 100 nM; activation at 1 µM (PKR R510Q [3]): 101 to 500%; activation at 1 µM (PKR wt): 101 to 500%
4 | O=C(c1ccc(NS(=O)(=O)c2cccc3cccnc23)cc1)N1CC(Oc2ccccc2)C1 [drawing 70] | 101 to 500 nM | > 500 nM | < 100 nM | –
5 | O=C(c1ccc(NS(=O)(=O)c2cccc3cccnc23)cc1)N1CC(O)(Cc2ccccc2)C1 [drawing 71] | < 100 nM | 101 to 500 nM | < 100 nM | AC50 (PKR G364D): 101 to 500 nM; AC50 (PKR R479H): < 100 nM
6 | Cc1cc(C(=O)N2CC(NC(=O)c3ccccn3)C2)ccc1NS(=O)(=O)c1cccc2cccnc12 [drawing 73] | 101 to 500 nM | > 500 nM | 101 to 500 nM | –
7 | Cc1cc(C(=O)N2CC(Oc3ccccc3)C2)ccc1NS(=O)(=O)c1cccc2cccnc12 [drawing 76] | < 100 nM | 101 to 500 nM | < 100 nM | –
8 | O=C(c1ccc(NS(=O)(=O)c2cccc3cccnc23)cc1)N1CC(OCc2ccccc2)C1 [drawing 78] | 101 to 500 nM | – | 101 to 500 nM | –
9 | O=C(NC1CN(C(=O)c2ccc(NS(=O)(=O)c3cccc4cccnc34)cc2)C1)c1ccccn1 [drawing 81] | > 500 nM | – | > 500 nM | –
10 | O=C(c1ccc(NS(=O)(=O)c2cccc3cccnc23)c(F)c1)N1CC(Nc2ccccc2)C1 [drawing 88] | > 500 nM | > 500 nM | > 500 nM | –
11 | O=C(c1ccc(NS(=O)(=O)c2cccc3cccnc23)cc1)N1CC(O)(c2ccccc2)C1 [drawing 106] | 101 to 500 nM | > 500 nM | 101 to 500 nM | AC50 (PKR G364D): > 500 nM; AC50 (PKR R479H): > 500 nM
12 | Cc1cc(C(=O)N2CC(Nc3ccccn3)C2)ccc1NS(=O)(=O)c1cccc2cccnc12 [drawing 121] | – | 101 to 500 nM | – | –
13 | COc1ccccc1OC1CN(C(=O)c2ccc(NS(=O)(=O)c3cccc4cccnc34)c(C)c2)C1 [drawing 129] | < 100 nM | > 500 nM | < 100 nM | –
14 | O=C(Nc1ccccn1)OC1CN(C(=O)c2ccc(NS(=O)(=O)c3cccc4cccnc34)cc2)C1 [drawing 131] | – | > 500 nM | – | –
